Results published in PubChem BioAssay AID2060335 (Molecular Pharmacology Branch, DTP, NCI, 2025).

Tested on: DU-145 multicell spheroids with HUVEC/MSC, viability
Test: Anticancer human tumor DU-145 cell line growth inhibition [IpAb];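 further: spheroids exposed to agents for seven days before measurement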;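 on viability, T/C: percent of DMSO vehicle control viability so 100% = untreated level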
Settings: for IC50: curve of first compound; for viability, T/C: stronger effect = lower value
How it was run: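 Spheroids of 60% malignant cells, 25% HUVEC and 15% MSC were exposed to targeted agents combined with ipatasertib or abemaciclib. Doses started at or near clinical Cmax (10 microM when unknown) and fell in half-log steps.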

[1] = second compound 0.01 µM, first compound 0.00316 µM
[2] = second compound 0.01 µM, first compound 0.01 µM
[3] = second compound 0.01 µM, first compound 0.0316 µM
[4] = second compound 0.01 µM, first compound 0.1 µM
[5] = second compound 0.0316 µM, first compound 0.00316 µM
[6] = second compound 0.0316 µM, first compound 0.01 µM
[7] = second compound 0.0316 µM, first compound 0.0316 µM
[8] = second compound 0.0316 µM, first compound 0.1 µM
[9] = second compound 0.1 µM, first compound 0.00316 µM
[10] = second compound 0.1 µM, first compound 0.01 µM
[11] = second compound 0.1 µM, first compound 0.0316 µM
[12] = second compound 0.1 µM, first compound 0.1 µM
[13] = second compound 0.316 µM, first compound 0.00316 µM
[14] = second compound 0.316 µM, first compound 0.01 µM
[15] = second compound 0.316 µM, first compound 0.0316 µM
[16] = second compound 0.316 µM, first compound 0.1 µM
[17] = second compound 1 µM, first compound 0.00316 µM
[18] = second compound 1 µM, first compound 0.01 µM
[19] = second compound 1 µM, first compound 0.0316 µM
[20] = second compound 1 µM, first compound 0.1 µM
[21] = second compound 0.01 µM, first compound 0.316 µM
[22] = second compound 0.01 µM, first compound 1 µM
[23] = second compound 0.01 µM, first compound 3.16 µM
[24] = second compound 0.01 µM, first compound 10 µM
[25] = second compound 0.0316 µM, first compound 0.316 µM
[26] = second compound 0.0316 µM, first compound 1 µM
[27] = second compound 0.0316 µM, first compound 3.16 µM
[28] = second compound 0.0316 µM, first compound 10 µM
[29] = second compound 0.1 µM, first compound 0.316 µM
[30] = second compound 0.1 µM, first compound 1 µM
[31] = second compound 0.1 µM, first compound 3.16 µM
[32] = second compound 0.1 µM, first compound 10 µM
[33] = second compound 0.316 µM, first compound 0.316 µM
[34] = second compound 0.316 µM, first compound 1 µM
[35] = second compound 0.316 µM, first compound 3.16 µM
[36] = second compound 0.316 µM, first compound 10 µM
[37] = second compound 1 µM, first compound 0.316 µM
[38] = second compound 1 µM, first compound 1 µM
[39] = second compound 1 µM, first compound 3.16 µM
[40] = second compound 1 µM, first compound 10 µM

SMILES | IC50 (second compound 0.01 µM) [nM] | IC50 (second compound 0.0316 µM) [nM] | IC50 (second compound 0.1 µM) [nM] | IC50 (second compound 0.316 µM) [nM] | IC50 (second compound 1 µM) [nM] | viability, T/C [3] [%] | viability, T/C [4] [%] | viability, T/C [7] [%] | viability, T/C [8] [%] | viability, T/C [11] [%] | viability, T/C [12] [%] | viability, T/C [15] [%] | viability, T/C [16] [%] | viability, T/C [19] [%] | viability, T/C [20] [%] | viability, T/C [21] [%] | viability, T/C [22] [%] | viability, T/C [25] [%] | viability, T/C [26] [%] | viability, T/C [29] [%] | also measured
CC(C)n1nc(-c2ccc3oc(N)nc3c2)c2c(N)ncnc21 + CCN1CCN(Cc2ccc(Nc3ncc(F)c(-c4cc(F)c5nc(C)n(C(C)C)c5c4)n3)nc2)CC1 | 1.9 | 1.49 | 1.46 | 1.84 | 1.86 | 11.3 | 9.72 | 11.7 | 8.9 | 12.9 | 9.08 | 16 | 12.5 | 25.1 | 20.3 |  |  |  |  |  | viability, T/C (second compound 0.01 µM, first compound 0.000316 µM): 97.3%; viability, T/C (second compound 0.01 µM, first compound 0.001 µM): 64.2%; viability, T/C [1]: 39.3%; viability, T/C [2]: 21.2%; viability, T/C (second compound 0.0316 µM, first compound 0.000316 µM): 82.2%; viability, T/C (second compound 0.0316 µM, first compound 0.001 µM): 56%; viability, T/C [5]: 38.5%; viability, T/C [6]: 19.9%; viability, T/C (second compound 0.1 µM, first compound 0.000316 µM): 76.9%; viability, T/C (second compound 0.1 µM, first compound 0.001 µM): 56.2%; viability, T/C [9]: 36.9%; viability, T/C [10]: 23.9%; viability, T/C (second compound 0.316 µM, first compound 0.000316 µM): 69.2%; viability, T/C (second compound 0.316 µM, first compound 0.001 µM): 58.8%; viability, T/C [13]: 40.9%; viability, T/C [14]: 31.5%; viability, T/C (second compound 1 µM, first compound 0.000316 µM): 60.3%; viability, T/C (second compound 1 µM, first compound 0.001 µM): 56.5%; viability, T/C [17]: 44.4%; viability, T/C [18]: 33.8%
CC1(C)CCC(CN2CCN(c3ccc(C(=O)NS(=O)(=O)c4ccc(NCC5CCOCC5)c([N+](=O)[O-])c4)c(Oc4cnc5[nH]ccc5c4)c3)CC2)=C(c2ccc(Cl)cc2)C1 + CCN1CCN(Cc2ccc(Nc3ncc(F)c(-c4cc(F)c5nc(C)n(C(C)C)c5c4)n3)nc2)CC1 | 4890 | 4110 | 4190 | 3640 | 3430 | 108 | 104 | 95.8 | 101 | 94.8 | 102 | 84 | 88.2 | 71.3 | 72.8 | 103 | 99.8 | 97 | 90.4 | 92 | viability, T/C [23]: 70.2%; viability, T/C [24]: 16.7%; viability, T/C [27]: 61.5%; viability, T/C [28]: 11.1%; viability, T/C [30]: 78.9%; viability, T/C [31]: 64.3%; viability, T/C [32]: 13.5%; viability, T/C [33]: 80.3%; viability, T/C [34]: 72.5%; viability, T/C [35]: 56.7%; viability, T/C [36]: 10.8%; viability, T/C [37]: 68.3%; viability, T/C [38]: 69.5%; viability, T/C [39]: 52.2%; viability, T/C [40]: 12.3%
CCCS(=O)(=O)Nc1ccc(F)c(C(=O)c2c[nH]c3ncc(-c4ccc(Cl)cc4)cc23)c1F + CCN1CCN(Cc2ccc(Nc3ncc(F)c(-c4cc(F)c5nc(C)n(C(C)C)c5c4)n3)nc2)CC1 | > 10000 | > 10000 | > 10000 | > 10000 | > 10000 | 107 | 107 | 101 | 107 | 95.8 | 95.5 | 80.3 | 84.9 | 70.1 | 66.9 | 102 | 115 | 105 | 115 | 99.3 | viability, T/C [23]: 106%; viability, T/C [24]: 79.8%; viability, T/C [27]: 106%; viability, T/C [28]: 72.4%; viability, T/C [30]: 107%; viability, T/C [31]: 98.3%; viability, T/C [32]: 65.9%; viability, T/C [33]: 87.1%; viability, T/C [34]: 88.6%; viability, T/C [35]: 89.4%; viability, T/C [36]: 52.4%; viability, T/C [37]: 67%; viability, T/C [38]: 64.6%; viability, T/C [39]: 69.9%; viability, T/C [40]: 54.8%
COc1c(OCCCN2CCOCC2)ccc2c3n(c(=NC(=O)c4cnc(N)nc4)nc12)CCN3 + CCN1CCN(Cc2ccc(Nc3ncc(F)c(-c4cc(F)c5nc(C)n(C(C)C)c5c4)n3)nc2)CC1 | 7.99 | 6.14 | 4.88 | 4.36 | 4.94 | 28 | 15.2 | 25.3 | 13.5 | 23.4 | 14.2 | 29.7 | 17.7 | 32.9 | 25.7 | 9.78 | 11.9 | 9.95 | 11.3 | 10.9 | viability, T/C [1]: 79.2%; viability, T/C [2]: 41.3%; viability, T/C [5]: 62.9%; viability, T/C [6]: 39.9%; viability, T/C [9]: 57.1%; viability, T/C [10]: 38%; viability, T/C [30]: 11.5%; viability, T/C [13]: 53.6%; viability, T/C [14]: 40.4%; viability, T/C [33]: 13.5%; viability, T/C [34]: 14%; viability, T/C [17]: 54.4%; viability, T/C [18]: 42.8%; viability, T/C [37]: 19.7%; viability, T/C [38]: 20.8%
Cc1nc(NC(=O)N2CCCC2C(N)=O)sc1-c1ccnc(C(C)(C)C(F)(F)F)c1 (stereo not given) + CCN1CCN(Cc2ccc(Nc3ncc(F)c(-c4cc(F)c5nc(C)n(C(C)C)c5c4)n3)nc2)CC1 | 186 | 116 | 97.3 | 94.1 | 168 | 75.3 | 59.4 | 73.5 | 45.8 | 67.1 | 49.2 | 61 | 49.7 | 58.1 | 55 | 39.9 | 31.5 | 38 | 29.5 | 33.8 | viability, T/C [23]: 19.4%; viability, T/C [24]: 9.2%; viability, T/C [27]: 19.2%; viability, T/C [28]: 8.68%; viability, T/C [30]: 28.6%; viability, T/C [31]: 20.5%; viability, T/C [32]: 11%; viability, T/C [33]: 36.8%; viability, T/C [34]: 32.4%; viability, T/C [35]: 24.1%; viability, T/C [36]: 16%; viability, T/C [37]: 43.8%; viability, T/C [38]: 39%; viability, T/C [39]: 28.4%; viability, T/C [40]: 21.5%
